This note sets out measurements from patent US20210379100A1, “USE OF FUNCTIONALIZED CALCIUM CARBONATE AS ACTIVE INGREDIENT” (OMYA INTERNATIONAL AG, priority 2018, published 2021).

The nature of this series: Particle size distribution (Malvern Mastersizer 3000 laser diffraction / Sedigraph sedimentation). The class given is physicochemical.

Text: The “particle size” of all particulate materials disclosed herein, with the exception of ground calcium carbonate and precipitated calcium carbonate, is described as volume-based particle size distribution dx(vol). Therein, the value dx(vol) represents the diameter relative to which x % by volume of the particles have diameters less than dx(vol). This means that, for example, the d20(vol) value is the particle size at which 20 vol % of all particles are smaller than that particle size. The d50(vol) value is thus the volume median particle size, i.e. 50 vol % of all particles are smaller than that particle size and the d98(vol) value, referred to as volume-based top cut, is the particle size at which 98 vol % of all particles are smaller than that particle size. […]
All particle sizes described herein, with the exception of the particle sizes of the ground calcium carbonate that was used for the production of the functionalized calcium carbonate and that of precipitated calcium carbonate, refer to the volume-based particle size distribution dx(vol). The volume-based median particle size d50(vol) and top cut d98(vol) are evaluated using a Malvern Mastersizer 3000 Laser Diffraction System (Malvern Instruments Plc., Great Britain). The raw data obtained by the measurement is analyzed using the Fraunhofer theory. […]

Take `O.O.O.O.O=C([O-])CC(O)(CC(=O)[O-])C(=O)[O-].O=C([O-])CC(O)(CC(=O)[O-])C(=O)[O-].[Ca+2].[Ca+2].[Ca+2]` [Calcium citrate tetrahydrate]: where the note is “median particle size”, the d50 came to 6.83 μm. Where the note is “top cut particle size”, this molecule registered a d98 of 80 μm.
